This is an account of results in patent publication US11858899B2, “Complexation of pirfenidone with polyphenolic calixarene or resorcin[4]arenes” (University of Cincinnati, priority 2021, dated 2024).

Holding throughout (test): Zone of inhibition (ZI) paper disc test, antibacterial/antioxidant activity
Common to all, as to type: cell-based

The test system of assay [1] is Staphylococcus aureus (G+ve) bacteria. The conditions noted are these: for Inference: radical scavenger: from ZI change with H2O2 / pyrogallol; for Zone of inhibition (ZI), 5 uL of (Compound + H2O2): premixed 0.01M compound + 0.88M H2O2, 1:1, decrease vs pure H2O2 = antioxidant; for Zone of inhibition (ZI), 5 uL of (Compound + Pyrogallol): premixed 0.01M compound + 1M Pyrogallol, 1:1, decrease vs pure pyrogallol = antioxidant; for Zone of inhibition (ZI), 5 uL of 0.01M Compound: pure compound on paper disc, zone width around disk. The procedure:
Tests were conducted to check the antioxidant/antibacterial activity of macrocycle and host-guest compounds. 5 uL of 0.01M compound, 5 uL (premixed, 0.01M compound+1M Pyrogallol, 1:1) and 5 uL (premixed, 0.01M compound+0.88M H2O2, 1:1) were added on paper discs placed on plates. 5 uL of 1M pyrogallol, 5 uL of 0.88M H2O2 were used as control (oxidants). In the following tables, Decrease/Increase means wrt pure H2O2 or pyrogallol. […] Zone=mm of zone width around disk.

Assay [2] deals with Pseudomonas aeruginosa (G-ve) bacteria. As to conditions: for Inference: radical scavenger: from ZI change with H2O2 / pyrogallol; for Zone of inhibition (ZI), 5 uL of (Compound + H2O2): premixed 0.01M compound + 0.88M H2O2, 1:1; for Zone of inhibition (ZI), 5 uL of (Compound + Pyrogallol): premixed 0.01M compound + 1M Pyrogallol, 1:1; for Zone of inhibition (ZI), 5 uL of 0.01M Compound: pure compound on paper disc. How it is done:
(§1) Tests were conducted to check the antioxidant/antibacterial activity of macrocycle and host-guest compounds. 5 uL of 0.01M compound, 5 uL (premixed, 0.01M compound+1M Pyrogallol, 1:1) and 5 uL (premixed, 0.01M compound+0.88M H2O2, 1:1) were added on paper discs placed on plates. 5 uL of 1M pyrogallol, 5 uL of 0.88M H2O2 were used as control (oxidants). In the following tables, Decrease/Increase means wrt pure H2O2 or pyrogallol. […] Zone=mm of zone width around disk. Decrease/Increase wrt pure H2O2 or pyrogallol.

Assay [3] concerns klebsiella pneumoniae (G -ve) bacteria. The conditions noted are these: for Inference: radical scavenger: from ZI change with H2O2 / pyrogallol; for Zone of inhibition (ZI), 5 uL of (Compound + H2O2): premixed 0.01M compound + 0.88M H2O2, 1:1; for Zone of inhibition (ZI), 5 uL of (Compound + Pyrogallol): premixed 0.01M compound + 1M Pyrogallol, 1:1; for Zone of inhibition (ZI), 5 uL of 0.01M Compound: pure compound on paper disc. How it is done:
as §1

Another assay deals with E. Coli (G-ve) bacteria. As to conditions: for Inference: radical scavenger: from ZI change with H2O2 / pyrogallol; for Zone of inhibition (ZI), 5 uL of (Compound + H2O2): premixed 0.01M compound + 0.88M H2O2, 1:1; for Zone of inhibition (ZI), 5 uL of (Compound + Pyrogallol): premixed 0.01M compound + 1M Pyrogallol, 1:1; for Zone of inhibition (ZI), 5 uL of 0.01M Compound: pure compound on paper disc. How it is done:
as §1

On to `OO` [H2O2], for which the “Zone of inhibition (ZI), 5 uL of 0.88M H2O2” value was “(4.6 mm)” in assay [1] (oxidant control alone), “ZI (2.7 mm” in assay [2] (oxidant control alone), “ZI (3 mm” in assay [3] (oxidant control alone) and “ZI (2.9 mm” with E. Coli (G-ve) bacteria (oxidant control alone).

`CCCCCCC1c2cc(c(O)c(O)c2O)C(CCCCCC)c2cc(c(O)c(O)c2O)C(CCCCCC)c2cc(c(O)c(O)c2O)C(CCCCCC)c2cc1c(O)c(O)c2O` (stereo not shown) [P6]: in assay [1], the “Inference: radical scavenger” value was “Low radical”; the “Zone of inhibition (ZI), 5 uL of (Compound + H2O2)” value is recorded as “(3.8 mm)”; the “Zone of inhibition (ZI), 5 uL of (Compound + Pyrogallol)” value is on record as “(2 mm)”; the “Zone of inhibition (ZI), 5 uL of 0.01M Compound” value is “No ZI”. Moreover, in assay [2], the “Inference: radical scavenger” value is “Low radical”; the “Zone of inhibition (ZI), 5 uL of (Compound + H2O2)” value is listed as “(2.2 mm)”; the “Zone of inhibition (ZI), 5 uL of (Compound + Pyrogallol)” value is given as “pyrogallol (1.2 mm”; the “Zone of inhibition (ZI), 5 uL of 0.01M Compound” value is “No ZI”. For the same compound, in assay [3], the “Inference: radical scavenger” value is “Moderate”; the “Zone of inhibition (ZI), 5 uL of (Compound + H2O2)” value is listed as “(2 mm)”; the “Zone of inhibition (ZI), 5 uL of (Compound + Pyrogallol)” value is given as “No ZI”; the “Zone of inhibition (ZI), 5 uL of 0.01M Compound” value is reported as “No ZI”. In the assay on E. Coli (G-ve) bacteria, the “Inference: radical scavenger” value is listed as “Moderate”; the “Zone of inhibition (ZI), 5 uL of (Compound + H2O2)” value was “(1.7 mm)”; the “Zone of inhibition (ZI), 5 uL of (Compound + Pyrogallol)” value is “No ZI”; the “Zone of inhibition (ZI), 5 uL of 0.01M Compound” value is reported as “No ZI”.

Turning to `OCCN1CCN(Cc2ccc(O)c3ncccc23)CC1` [VK], in assay [1], the “Inference: radical scavenger” value was “Low radical”; the “Zone of inhibition (ZI), 5 uL of (Compound + H2O2)” value was “(3.7 mm)”; the “Zone of inhibition (ZI), 5 uL of (Compound + Pyrogallol)” value was “(2.3 mm)”; the “Zone of inhibition (ZI), 5 uL of 0.01M Compound” value is recorded as “No ZI”. In assay [2], the “Inference: radical scavenger” value is given as “Moderate”; the “Zone of inhibition (ZI), 5 uL of (Compound + H2O2)” value was “(2.2 mm)”; the “Zone of inhibition (ZI), 5 uL of (Compound + Pyrogallol)” value is “(0.7 mm)”; the “Zone of inhibition (ZI), 5 uL of 0.01M Compound” value is reported as “No ZI”. In addition, in assay [3], the “Inference: radical scavenger” value is on record as “Moderate”; the “Zone of inhibition (ZI), 5 uL of (Compound + H2O2)” value is given as “(2.3 mm)”; the “Zone of inhibition (ZI), 5 uL of (Compound + Pyrogallol)” value is “No ZI”; the “Zone of inhibition (ZI), 5 uL of 0.01M Compound” value is on record as “No ZI”. Further, in the assay on E. Coli (G-ve) bacteria, the “Inference: radical scavenger” value is “High radical”; the “Zone of inhibition (ZI), 5 uL of (Compound + H2O2)” value is “No ZI”; the “Zone of inhibition (ZI), 5 uL of (Compound + Pyrogallol)” value is “No ZI”; the “Zone of inhibition (ZI), 5 uL of 0.01M Compound” value is “No ZI”.

For the compound `Oc1cccc(O)c1O` [pyrogallol, Pyrogallol], the “Zone of inhibition (ZI), 5 uL of 1M pyrogallol” value in assay [1] (oxidant control alone) is “(3.3 mm)”; in assay [2] (oxidant control alone), “ZI (1.1 mm”; in assay [3] (oxidant control alone), “ZI (0.9 mm”; in the assay with E. Coli (G-ve) bacteria (oxidant control alone), “ZI (0.9 mm”.
